Our source for the IC50 values is article PMC10058905, “Bioassay-Guided Alkaloids Isolation from Camellia sinensis and Colchicum luteum: In Silico and In Vitro Evaluations for Protease Inhibition” (Molecules, 2023).

This assay deals with T1, Trypsin from bovine pancreas (Bos taurus, UniProt P00760).
T1 construct: gene PRSS1
T1 sequence (P00760 24-246): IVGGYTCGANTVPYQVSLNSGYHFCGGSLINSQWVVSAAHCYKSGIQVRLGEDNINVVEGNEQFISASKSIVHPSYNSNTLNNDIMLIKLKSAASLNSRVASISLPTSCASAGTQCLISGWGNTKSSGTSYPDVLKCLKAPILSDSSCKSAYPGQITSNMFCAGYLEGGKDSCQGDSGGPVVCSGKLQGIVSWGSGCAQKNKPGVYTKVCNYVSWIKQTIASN
The experiment in a line: spectrophotometric BApNA hydrolysis assay, positive control. The format is biochemical.

What is called IC50 is the point on the concentration scale where inhibition reaches its midpoint. Higher therefore signals weaker potency in that assay. On to `O=S(=O)(F)Cc1ccccc1` [PMSF], for which it took 110 ± 20 µM to reach half-maximal inhibition (IC50).
